Assay [1] deals with D(1B) dopamine receptor (Homo sapiens, UniProt P21918). The assay can be described thus: Positive allosteric modulator activity at human dopamine D5 receptor expressed in CHO-K1 cells assessed as potentiation of dopamine-induced beta-arrestin2 recruitment by measuring dopamine EC50 at 50 uM incubated for 90 mins by PathHunter assay (Rvb = 81.7 nM).
Assay [2] has as its target D(1A) dopamine receptor (Homo sapiens, UniProt P21728). Description: Positive allosteric modulator activity at human dopamine D1 receptor expressed in HEK293 cells assessed as potentiation of dopamine-induced cAMP accumulation by measuring dopamine EC50 at 50 uM measured after 30 mins by HitHunter assay (Rvb = 214 nM). (cAMP levels reflect the balance of adenylyl cyclase and phosphodiesterase activity.)

Chain of D(1B) dopamine receptor (P21918 whole entry): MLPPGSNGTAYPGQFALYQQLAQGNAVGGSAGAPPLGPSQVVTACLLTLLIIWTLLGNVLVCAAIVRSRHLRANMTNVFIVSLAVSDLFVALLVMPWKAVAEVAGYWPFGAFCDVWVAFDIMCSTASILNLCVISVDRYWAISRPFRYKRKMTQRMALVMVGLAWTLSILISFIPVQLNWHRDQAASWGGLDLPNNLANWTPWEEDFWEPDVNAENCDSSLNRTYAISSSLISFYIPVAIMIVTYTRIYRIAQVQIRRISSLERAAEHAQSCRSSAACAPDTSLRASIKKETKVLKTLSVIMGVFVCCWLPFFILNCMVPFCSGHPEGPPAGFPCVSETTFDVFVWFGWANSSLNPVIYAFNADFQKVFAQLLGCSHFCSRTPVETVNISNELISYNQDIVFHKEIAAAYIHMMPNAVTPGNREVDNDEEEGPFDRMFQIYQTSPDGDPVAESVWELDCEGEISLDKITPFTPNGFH
Chain of D(1A) dopamine receptor (P21728 whole entry): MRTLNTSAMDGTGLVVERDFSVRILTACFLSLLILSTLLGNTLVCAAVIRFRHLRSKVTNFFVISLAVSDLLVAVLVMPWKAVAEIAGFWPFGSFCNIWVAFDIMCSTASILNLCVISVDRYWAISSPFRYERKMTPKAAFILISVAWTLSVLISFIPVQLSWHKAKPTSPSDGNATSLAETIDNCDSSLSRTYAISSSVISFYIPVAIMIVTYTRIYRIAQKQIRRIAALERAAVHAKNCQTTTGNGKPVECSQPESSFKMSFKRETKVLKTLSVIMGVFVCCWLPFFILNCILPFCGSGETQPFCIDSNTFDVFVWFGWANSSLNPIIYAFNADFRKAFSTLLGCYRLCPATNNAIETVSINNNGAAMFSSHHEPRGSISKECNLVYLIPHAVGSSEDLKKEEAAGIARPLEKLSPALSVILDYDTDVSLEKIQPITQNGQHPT

As to `Cc1ccc(-n2c(C3CCCC3)nc3c(c(=O)c4ccccc4n3C)c2=O)cc1`, in assay [1], the EC50 amounted to 27 nM.
Consider `Cc1ccc(-n2c(C3CCCCC3)nc3c(c(=O)c4ccccc4n3C)c2=O)cc1`, for which the EC50 in assay [1] amounted to 27 nM.
As to `COc1ccc(-n2c(CC(C)C)nc3c(c(=O)c4ccccc4n3C)c2=O)cc1Cl`, in assay [1], the concentration giving a half-maximal response (EC50) worked out at 58 nM.
For the molecule `Cn1c2ccccc2c(=O)c2c(=O)n(-c3ccccc3)c(C3CCCCC3)nc21`, the EC50 is 29 nM in assay [1] and 123 nM in assay [2].
Take `COc1ccc(-n2c(C3CCCC3)nc3c(c(=O)c4ccccc4n3C)c2=O)cc1`: the EC50 in assay [1] was found to be 25 nM.
Turning to `CC(C)Cc1nc2c(c(=O)c3ccccc3n2C)c(=O)n1-c1cccc(Cl)c1`, the EC50 in assay [1] amounted to 63 nM.
The same measure, in the same setting: the result for `Cn1c2ccccc2c(=O)c2c(=O)n(-c3ccc(Cl)cc3)c(CC3CCCCC3)nc21` reads 74 nM.
Still for that read-out and setting: the result for `CC(C)Cc1nc2c(c(=O)c3ccccc3n2C)c(=O)n1-c1ccc(Cl)cc1` reads 56 nM; that for `COc1ccc(-n2c(CC(C)C)nc3c(c(=O)c4ccccc4n3C)c2=O)cc1`, 34 nM.
On the same count and under the same terms, the same measure for `CC(C)Cc1nc2c(c(=O)c3ccccc3n2C)c(=O)n1-c1ccccc1`: 103 nM; for `COc1ccc(-n2c(CC3CCCCC3)nc3c(c(=O)c4ccccc4n3C)c2=O)cc1Cl`: 94 nM.
On to `Cn1c2ccccc2c(=O)c2c(=O)[nH]c(C3CCCC3)nc21`, for which the EC50 in assay [1] came out at 82 nM.
The same measure, in the same setting: the same measure for `Cn1c2ccccc2c(=O)c2c(=O)n(-c3ccc(Cl)cc3)c(C3CCCC3)nc21`: 43 nM; for `Cn1c2ccccc2c(=O)c2c(=O)n(-c3cccc(Cl)c3)c(C3CCCC3)nc21`: 43 nM; for `COc1ccc(-n2c(C3CCCCC3)nc3c(c(=O)c4ccccc4n3C)c2=O)cc1Cl`: 59 nM.
`Cc1ccc(-n2c(CC3CCCCC3)nc3c(c(=O)c4ccccc4n3C)c2=O)cc1`: the EC50 in assay [1] was found to be 168 nM.
Same read-out and setting: the result for `Cn1c2ccccc2c(=O)c2c(=O)n(-c3cccc(Cl)c3)c(C3CCCCC3)nc21` reads 80 nM; that for `COc1ccc(-n2c(C3CCCC3)nc3c(c(=O)c4ccccc4n3C)c2=O)cc1Cl`, 28 nM; that for `Cn1c2ccccc2c(=O)c2c(=O)n(-c3cccc(Cl)c3)c(CC3CCCCC3)nc21`, 95 nM.
On the same count and under the same terms, the result for `Cn1c2ccccc2c(=O)c2c(=O)n(-c3ccc(Cl)cc3)c(C3CCCCC3)nc21` reads 44 nM; that for `Cn1c2ccccc2c(=O)c2c(=O)n(-c3ccccc3)c(CC3CCCCC3)nc21`, 49 nM.
As to `Cn1c2ccccc2c(=O)c2c(=O)n(-c3ccccc3)c(C3CCCC3)nc21`, the EC50 in assay [1] is 80 nM.
For the molecule `Cc1ccc(-n2c(CC(C)C)nc3c(c(=O)c4ccccc4n3C)c2=O)cc1`, in assay [1], the EC50 was found to be 44 nM.
For the molecule `COc1ccc(-n2c(C3CCCCC3)nc3c(c(=O)c4ccccc4n3C)c2=O)cc1`, the EC50 in assay [1] came to 62 nM.
Consider `Cn1c2ccccc2c(=O)c2c(=O)n(-c3ccccc3)c(C3CC3)nc21`, for which the EC50 in assay [1] was determined as 95 nM.

Broadly, the EC50 is the concentration at which the effect is half-maximal.

The values above are taken from BindingDB's records for doi:10.1016/j.bmcl.2020.127696 (National Institutes of Health, 2021).
